Several values for one entry are separate records, joined by “and”; a condition that tells them apart may be missing. Identical values can stand only once.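 All cell lines were grown in 96-well plates and treated with compound for 48 hours. At the GI50, growth is halved. At the TGI there is no net growth.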
How the values were obtained:
Assay in all cases: growth of human tumour cells (NCI), 48 h
HT29 colon = test system: HT29 colon
NCI-H460 lung = test system: NCI-H460 lung
NCI-H226 lung = test system: NCI-H226 lung
TK-10 renal = test system: TK-10 renal
SF-268 CNS = test system: SF-268 CNS
LOX IMVI melanoma = test system: LOX IMVI melanoma
RXF 393 renal = test system: RXF 393 renal
OVCAR-5 ovarian = test system: OVCAR-5 ovarian
DU-145 prostate = test system: DU-145 prostate
MDA-MB-435 = test system: MDA-MB-435

| Compound | TGI (HT29 colon) | TGI (NCI-H460 lung) | TGI (NCI-H226 lung) | TGI (TK-10 renal) | TGI (SF-268 CNS) | TGI (LOX IMVI melanoma) | TGI (RXF 393 renal) | GI50 (NCI-H226 lung) | GI50 (SF-268 CNS) | GI50 (HT29 colon) | GI50 (NCI-H460 lung) | GI50 (OVCAR-5 ovarian) [µM] | TGI (OVCAR-5 ovarian) [µM] | GI50 (DU-145 prostate) [µM] | TGI (DU-145 prostate) [µM] | GI50 (TK-10 renal) | GI50 (LOX IMVI melanoma) | GI50 (RXF 393 renal) | TGI (MDA-MB-435) [µM] | GI50 (MDA-MB-435) [µM] |
| --- | --- | --- | --- | --- | --- | --- | --- | --- | --- | --- | --- | --- | --- | --- | --- | --- | --- | --- | --- | --- |
| O=C1N(c2ccccc2)C(=O)C2(SC=NN2Cc2ccccc2)N1c1ccccc1 (stereo not drawn) | > 100 µM | > 100 µM | > 100 µM | > 100 µM | > 100 µM | > 100 µM | > 100 µM | – | – | – | – | – | – | – | – | – | – | – | – | – |
| C1C[S][Ge]2([S]CCO1)[S]CCOCC[S]2 | – | – | > 100 µM | – | > 100 µM | – | – | > 100 µM | > 100 µM | – | – | – | – | – | – | – | – | – | – | – |
| COc1ccc(C2=NN(C(=O)c3cc(OC)c(OC)c(OC)c3)C(c3ccc(Cl)cc3)C2)cc1OC (stereo not drawn) | > 100 µM | > 100 µM | > 57.7 µM | > 81.6 µM | 23.6 µM | > 100 µM | – | – | 2.66 µM | 1.4 µM | 2.11 µM | 76.5 | > 100 | 3.62 | > 58.9 | 3.63 µM | 3.63 µM | – | – | – |
| Cc1c(C(=O)C/C(=N/NC(=O)C[n+]2ccccc2)C(=O)Nc2ccccc2)[n+](=O)c2ccccc2n1O | > 100 µM | > 100 µM | > 100 µM | > 100 µM | > 100 µM | > 100 µM | > 100 µM | – | – | – | – | – | > 100 | – | – | – | – | – | – | – |
| CC(=O)O[C@]1(C)OC(=O)[C@@H](C)N1[N+](=O)[O-] | > 100 µM | > 100 µM | > 100 µM | > 100 µM | – | > 100 µM | > 100 µM | – | – | – | – | – | > 100 | – | – | – | – | – | – | – |
| COc1c(NC(C)=O)cc(C)cc1NC(C)=O | – | > 100 µM | – | > 100 µM | > 100 µM | > 100 µM | > 100 µM | – | – | – | – | – | – | – | – | – | – | – | – | – |
| O=C([O][Hg][CH2]C1COC([CH2][Hg][O]C(=O)c2ccccc2)CO1)c1ccccc1 (stereo not drawn) | 30.5 µM and 3.26 µM | 33.4 µM and 21.6 µM | 39.1 µM and 34 µM | 19 µM and 3.33 µM | 34 µM and 15.5 µM | 4.85 µM and 3.11 µM | 22.8 µM and 2.76 µM | 20.2 µM and 6.31 µM | 17.9 µM and 3.51 µM | 15.7 µM and 1.7 µM | 17.3 µM and 3.49 µM | 18 | 31.9 | 18.8 | 33 | 10.5 µM and 1.85 µM | 1.89 µM and 1.66 µM | 8.88 µM and 1.45 µM | – | – |
| O=C1C2=Nc3ccccc3C(O)N2c2ccccc21 (stereo not drawn) | > 100 µM | > 100 µM | 77.3 µM | > 100 µM | > 100 µM | 13.1 µM | – | – | – | – | – | – | > 100 | – | > 100 | – | – | – | 6.29 | – |
| Cc1cc(C2=NNC(=O)Cc3cc4c(cc32)OCCO4)cc(C)c1N | > 100 µM | > 100 µM | > 100 µM | > 100 µM | > 100 µM | > 100 µM | – | 8.9 µM | 4.21 µM | 0.746 µM | 2.64 µM | 8.02 | > 100 | 3.84 | > 100 | 8.96 µM | 3.18 µM | – | 0.978 | 0.261 |
| C[C@]12CCc3nonc3C1CC[C@@H]1C2CC[C@]2(C)NC(=O)CCC12 (stereo partly drawn) | > 100 µM | > 100 µM | > 100 µM | > 100 µM | > 100 µM | > 100 µM | > 100 µM | – | – | – | – | – | > 100 | – | – | – | – | – | – | – |
| CN=C(NC#N)NCCSCc1nc[nH]c1C | > 100 µM | > 100 µM | > 100 µM | – | > 100 µM | > 100 µM | > 100 µM | – | – | – | – | – | > 100 | – | > 100 | – | – | – | > 100 | – |
| CC1(C)CCc2cc3c(cc2O1)OCC1c2cc4c(cc2OC31)OCO4 (stereo not drawn) | > 100 µM | > 100 µM | > 100 µM | > 100 µM | > 100 µM | > 100 µM | > 100 µM | – | – | – | – | – | > 100 | – | – | – | – | – | – | – |
| CCOC(=O)c1c2c(n(Cc3ccccc3)c1C)-c1ccccc1C(=O)C2=O | 25.7 µM | 21.5 µM | – | 34.6 µM | 47.2 µM | 24.6 µM | 36.6 µM | – | 19.5 µM | 11.8 µM | 6.31 µM | 15.5 | 40.4 | 4.21 | 12.4 | 16.3 µM | 11.8 µM | 17.1 µM | 87 | 29 |
| COc1ccc2c(c1)[n+]([O-])c(-c1ccccc1)c(N)[n+]2[O-] | > 100 µM | > 100 µM | > 100 µM | > 100 µM | > 100 µM | > 100 µM | – | – | – | – | – | – | > 100 | – | – | – | – | – | – | – |
| O=C(c1cc2ccccc2o1)N(Cc1ccccc1)c1ccccc1 | 66 µM | 78.6 µM | 34.9 µM | > 100 µM | > 100 µM | 39 µM | 43 µM | – | – | – | – | – | > 100 | – | – | – | – | – | – | – |
| CC(C)(C)CC(C)(C)c1cc2c(O)c(c1)Cc1cc(C(C)(C)CC(C)(C)C)cc(c1O)Cc1cc(C(C)(C)CC(C)(C)C)cc(c1O)Cc1cc(C(C)(C)CC(C)(C)C)cc(c1O)Cc1cc(C(C)(C)CC(C)(C)C)cc(c1O)Cc1cc(C(C)(C)CC(C)(C)C)cc(c1O)C2 | > 100 µM | > 100 µM | – | > 100 µM | > 100 µM | – | > 100 µM | – | – | – | – | – | > 100 | – | – | – | – | – | – | – |
| COc1ccc2nc3cc(Cl)ccc3c(N3CCN(c4ccnc(N5CCOCC5)n4)CC3)c2c1 | 16.7 µM | > 100 µM | > 100 µM | > 100 µM | > 100 µM | – | 16.1 µM | > 100 µM | 9.74 µM | 2.9 µM | > 100 µM | 7.58 | > 100 | 17.9 | > 100 | 42.5 µM | – | 2.68 µM | > 100 | 7.15 |
| COC(=O)C1=C(C(=O)OC)C23CC1C1C(C(=O)OC)=C(C(=O)OC)C12C1C=CC3C2C(=O)OC(=O)C21 (stereo not drawn) | > 100 µM | > 100 µM | – | > 100 µM | > 100 µM | – | > 100 µM | – | – | – | – | – | > 100 | – | – | – | – | – | – | – |
| CCOc1cc2c(cc1O)/C(=N\O)C[C@@H]1[C@@H]2CC[C@]2(C)[C@@H](O)CC[C@@H]12 | > 100 µM | 1.47 µM | > 100 µM | > 100 µM | – | > 63.8 µM | > 100 µM | 0.258 µM | 0.0884 µM | 3.94 µM | – | – | > 100 | 0.0232 | > 100 | – | 0.00721 µM | – | – | – |
| O=C1OCCC1C(O)C1c2ccccc2-c2ccccc21 (stereo not drawn) | > 100 µM | > 100 µM | > 100 µM | > 100 µM | > 100 µM | – | – | – | – | – | – | – | > 100 | – | – | – | – | – | – | – |

From PubChem BioAssay (NCI)
